Data taken from paper PMC4161306, “Regulation of Arabidopsis Flowering by the Histone Mark Readers MRG1/2 via Interaction with CONSTANS to Modulate FT Expression” (PLoS Genetics, 2014).

Columns and labels:
[1] = tested on: chromodomain of MRG1 (His-MRG1N); test: Dot-blot / pull-down binding assay, His-MRG1N with methylated H3 peptides; design: species or system Arabidopsis; details: Figure 1A, N-terminal His-tagged chromodomain, peptides residues 1–21 (K4, K9) or 21–44 (K27, K36)
Description: (§1) For the dot-blot binding assay, MRG1N (1–321, AT4G37280) and MRG2N (1–369, AT1G02740) cDNA were amplified by primers MRG1-1/MRG1-2 and MRG2-1/MRG2-2, respectively, and cloned into a pET-30a vector (Novagen, www.novagen.com). Site mutation was generated using a Takara MutanBEST Kit (http://www.takara-bio.com) with primers MRG2-3/MRG2-4. The in vitro binding assay of the chromodomain containing proteins with the histone peptides were performed as described previously. Methylated H3K4 (H3K4me1/2/3, residues 1–21), H3K9 (H3K9me1/2/3, residues 1–21), H3K27 (H3K27me1/2/3, residues 21–44), and H3K36 (H3K36me1/2/3, residues 21–44) peptides were synthesized by Scilight Biotechnology (http://www.scilight-peptide.com). Anti-monomethyl-H3K4 (07-436), anti-dimethyl-H3K4 (07-030), anti-trimethyl-H3K4 (07-473), anti-trimethyl-H3K9 (07-442), and anti-trimethyl-H3K27 (07-449) were purchased from Millipore (http://www.millipore.com), and anti-monomethyl-H3K36 (ab9048), anti-dimethyl-H3K36 (ab9049), and anti-trimethyl-H3K36 (ab9050) were purchased from Abcam (http://www.abcam.com).

[2] = In vitro peptide pull-down from nuclear extracts with mass spectrometry; format: binding, Arabidopsis; details: biotinylated H3 peptides (amino acids 21 to 44) on streptavidin-coated beads
Description: An in vitro peptide pull-down assay was used to identify the proteins that bind to histone H3 tail methylated at K36. Biotinylated histone H3 peptides (amino acids 21 to 44), with either unmethylated (control) or tri-methylated K36, were immobilized on the streptavidin-coated beads and incubated with Arabidopsis nuclear extracts. […] Members in this group have the same domain organization, with a chromodomain (chromatin organization modifier domain) near the N-terminus, and a MRG domain near the C-terminus (Figure S1). MRG2 has a homolog in Arabidopsis, MRG1, which shares with MRG2 49% identity and 65% similarity at the amino acid sequence level.

[3] = tested on: Y87A substitution in MRG2 chromodomain (His-MRG2N(Y87A)); test: Dot-blot binding assay, His-MRG2N(Y87A) with methylated H3 peptides; design: species or system Arabidopsis; details: Figure 7B; Tyr87Ala mutation in MRG2
Description: as §1

[4] = tested on: chromodomain of MRG2 (His-MRG2N); test: Dot-blot / pull-down binding assay, His-MRG2N with methylated H3 peptides; design: species or system Arabidopsis; details: Figure 1A, N-terminal His-tagged chromodomain, peptides residues 1–21 (K4, K9) or 21–44 (K27, K36)
Description: as §1

EAF3 = details: ref [29]; cited from earlier work
Source text: Firstly, via their chromodomain, MRG1/2 proteins act as readers that recognize methylated H3K4 and H3K36.

| Substance | binding to chromodomain of MRG1 [1] | protein bound from nuclear extract [2] | association with MRG2 Y87A [3] | binding to chromodomain of MRG2 [4] | binding to EAF3 (EAF3) |
| --- | --- | --- | --- | --- | --- |
| mono-methylated H3K36: methylated H3K36 peptide, residues 21–44 (dot-blot) | not |  |  |  |  |
| H3 peptides tri-methylated at K36: Biotinylated histone H3 peptides (amino acids 21 to 44) with tri-methylated K36 |  | identified MRG2 |  |  |  |
| H3K4me3: methylated H3K4 peptide, residues 1–21 (dot-blot), Scilight Biotechnology | could bind |  | disrupted its association | could bind | only very weakly |
| H3K36me3: methylated H3K36 peptide, residues 21–44 (dot-blot) | could bind |  | disrupted its association | could bind | bind |
| mono-methylated H3K4: methylated H3K4 peptide, residues 1–21 (dot-blot) | not |  |  |  |  |
| H3K4me2: methylated H3K4 peptide, residues 1–21 (dot-blot) | could bind |  |  | could bind |  |
| H3K36me2: methylated H3K36 peptide, residues 21–44 (dot-blot) | could bind |  |  | could bind |  |
